Some results are limits rather than exact numbers.

This test has as its target T1, SHP2 (Homo sapiens, UniProt Q06124).
T1 construct: endogenous in cells; host or cells: MV 411
T1 sequence (Q06124 1-593): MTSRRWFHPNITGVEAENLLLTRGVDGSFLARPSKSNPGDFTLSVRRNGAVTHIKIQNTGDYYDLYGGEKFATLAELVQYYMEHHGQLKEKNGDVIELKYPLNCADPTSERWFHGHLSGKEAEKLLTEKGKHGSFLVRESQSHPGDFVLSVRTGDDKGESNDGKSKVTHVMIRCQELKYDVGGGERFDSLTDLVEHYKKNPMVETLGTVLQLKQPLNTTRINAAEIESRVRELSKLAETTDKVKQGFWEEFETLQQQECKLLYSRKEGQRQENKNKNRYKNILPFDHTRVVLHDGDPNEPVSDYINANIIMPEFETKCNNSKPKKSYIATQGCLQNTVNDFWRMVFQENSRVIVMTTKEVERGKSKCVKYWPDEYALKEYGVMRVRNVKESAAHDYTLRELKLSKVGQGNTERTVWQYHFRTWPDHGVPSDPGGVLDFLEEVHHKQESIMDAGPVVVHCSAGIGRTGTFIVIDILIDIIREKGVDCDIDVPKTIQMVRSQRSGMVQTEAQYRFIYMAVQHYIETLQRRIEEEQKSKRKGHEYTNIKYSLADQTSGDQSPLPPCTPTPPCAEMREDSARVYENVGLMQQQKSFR
Put plainly: SHP2 degradation in MV 411 cells by Western blot (median degradation concentration). It is filed as cell-based. To be noted: 24 hours with compound, SHP-2 antibody Western blot, concentration of the median degradation from exposure gray scale. From the text: Reagent: complete DMEM medium, Gibco products. Fetal bovine serum, manufactured byThermoFisher. Trypsin, manufactured byThermoFisher. The SHP-2 antibody is produced by CST. Cell line, MV 411, the blast cells of patients with bi-phenotypic B-myelomonocytic leukemia, was established by Rovera. Measuring method: took the cells growing in the logarithmic phase, collected and suspended the cells in DMEM containing 10% fetal calf serum, gently blowed and beated the cells into single cell suspension by using a pipette, and counted the living cells under a microscope. […] Then cultured for 24 hours. All cells were collected and washed with PBS, lysed with RIPA lysate and collected into a 1.7 ml tube. […] metal bath for 5 minutes to fully denature the protein. 100V constant voltage electrophoresis after Western condensation and loading, stopped when bromophenol blue band reached the end point. The cellulose acetate membrane is transferred by a wet method, 45 minutes at a constant flow of 300-500 mA, 5% BSA is used for blocking for 1-2 hours at room temperature. Primary antibody of 1:500-1:8000 were used for incubation at 25° C. for 40 minutes and then washed three times. Secondary antibody was used for incubation for 15-40 min at room temperature. The proteins were detected using ultrasensitive ECL luminophores such as […], using an X-Ray film automatic developing machine. The concentration of the median degradation was calculated by exposure gray scale.
In general terms: A western blot detects proteins with antibodies after separation by electrophoresis.

What is called DC50 is the midpoint of the concentration-degradation curve. For the molecule `CCOc1cc2oc(-c3ccc(NCCOCCOCCOCCOc4cccc5c4C(=O)N(C4CCC(=O)NC4=O)C5=O)cc3Cl)cc(=O)c2cc1-c1cccc(CO)c1` (stereo not drawn) [Compound 11], the DC50 came to 50 nM.
On to `CCOc1cc2oc(-c3ccc(OCCOCCOCCOCCOc4cccc5c4C(=O)N(C4CCC(=O)NC4=O)C5=O)cc3Cl)cc(=O)c2cc1-c1ccc(S(C)(=O)=O)cc1F` (stereo not drawn) [Compound 28], for which the 50% degradation concentration (DC50) stood at 110 nM.
Turning to `CCOc1cc2oc(-c3ccc(NCCOCCOCCOCCOc4cccc5c4C(=O)N(C4CCC(=O)NC4=O)C5=O)cc3Cl)cc(=O)c2cc1-c1cccc(C(N)=O)c1` (stereo not drawn) [Compound 16], the DC50 was 250 nM.
The result for `CCOc1cc2oc(-c3ccc(OCCOCCOCCOCCOc4cccc5c4C(=O)N(C4CCC(=O)NC4=O)C5=O)cc3Cl)cc(=O)c2cc1-c1cc(C(N)=O)cc(C(=O)N(C)C)c1` (stereo not drawn) [Compound 77] reads greater than 250 nM; that for `CCOc1cc2oc(-c3ccc(OCCOCCOCCOCCOc4cccc5c4C(=O)N(C4CCC(=O)NC4=O)C5=O)cc3Cl)cc(=O)c2cc1-c1cc(C(N)=O)cc(N(C)C(C)=O)c1` (stereo not drawn) [Compound 65], greater than 250 nM.
For the molecule `CCOc1cc2oc(-c3ccc(NCCOCCOCCOCCOc4cccc5c4C(=O)N(C4CCC(=O)NC4=O)C5=O)cc3Cl)cc(=O)c2cc1CN1CCC=C(n2c(=O)[nH]c3cc(NS(=O)(=O)C4CC4)ccc32)C1` (stereo not drawn) [Compound 50], the DC50 was greater than 750 nM.
The result for `CCOc1cc2oc(-c3ccc(OCCOCCOCCOCCOc4cccc5c4C(=O)N(C4CCC(=O)NC4=O)C5=O)cc3Cl)cc(=O)c2cc1-c1cc(C(N)=O)cc(-c2ncc[nH]2)c1` (stereo not drawn) [Compound 59] reads greater than 750 nM; that for `CCOc1cc2oc(-c3ccc(OCCOCCOCCOCCOc4cccc5c4C(=O)N(C4CCC(=O)NC4=O)C5=O)cc3Cl)cc(=O)c2cc1-c1cc(NS(=O)(=O)c2ccccc2)cc(C(N)=O)c1` (stereo not drawn) [Compound 68], greater than 250 nM.
The result for `CCOc1cc2oc(-c3ccc(OCCOCCOCCOCCOc4cccc5c4C(=O)N(C4CCC(=O)NC4=O)C5=O)cc3Cl)cc(=O)c2cc1-c1ccc(S(=O)(=O)N2CCOCC2)cc1` (stereo not drawn) [Compound 34] reads 42 nM; that for `CCOc1cc2oc(-c3ccc(OCCOCCOCCOCCOc4cccc5c4C(=O)N(C4CCC(=O)NC4=O)C5=O)cc3Cl)cc(=O)c2cc1-c1cc(C(N)=O)cc(S(=O)(=O)NC)c1` (stereo not drawn) [Compound 81], greater than 500 nM; that for `CCOc1cc2oc(-c3ccc(NCCOCCOCCOCCOc4ccc5c(c4)C(=O)N(C4CCC(=O)NC4=O)C5=O)cc3Cl)cc(=O)c2cc1-c1cccc(C(C)=O)c1` (stereo not drawn) [Compound 36], 20 nM.
To `CCOc1cc2oc(-c3ccc(OCCOCCOCCOCCOc4cccc5c4C(=O)N(C4CCC(=O)NC4=O)C5=O)cc3Cl)cc(=O)c2cc1-c1cccc(N)c1` (stereo not drawn) [Compound 26] belongs 3500 nM; to `CCOc1cc2oc(-c3ccc(OCCOCCOCCOCCOc4ccc5c(c4)C(=O)N(C4CCC(=O)NC4=O)C5=O)cc3Cl)cc(=O)c2cc1-c1cc(C(C)=O)cc(C(N)=O)c1` (stereo not drawn) [Compound 35], 25 nM.
In the case of `CCOc1cc2oc(-c3ccc(OCCOCCOCCOCCOc4cccc5c4C(=O)N(C4CCC(=O)NC4=O)C5=O)cc3Cl)cc(=O)c2cc1-c1cc(C(N)=O)cc(N(C)C)c1` (stereo not drawn) [Compound 63], the DC50 was greater than 250 nM.
The result for `CCOc1cc2oc(-c3ccc(OCCOCCOCCOCCOc4cccc5c4C(=O)N(C4CCC(=O)NC4=O)C5=O)cc3Cl)cc(=O)c2cc1-c1cc(NS(C)(=O)=O)cc(C(N)=O)c1` (stereo not drawn) [Compound 66] reads greater than 250 nM; that for `CCOc1cc2oc(-c3ccc(OCCOCCOCCOCCOc4cccc5c4C(=O)N(C4CCC(=O)NC4=O)C5=O)cc3Cl)cc(=O)c2cc1-c1ccccc1C(N)=O` (stereo not drawn) [Compound 45], greater than 250 nM.
The result for `CCOc1cc2oc(-c3ccc(OCCOCCOCCOCCOc4cccc5c4C(=O)N(C4CCC(=O)NC4=O)C5=O)cc3Cl)cc(=O)c2cc1-c1cc(NC(=O)Nc2ccccc2)cc(C(N)=O)c1` (stereo not drawn) [Compound 71] reads greater than 250 nM; that for `CCOc1cc2oc(-c3ccc(OCCOCCOCCOCCOc4cccc5c4C(=O)N(C4CCC(=O)NC4=O)C5=O)cc3Cl)cc(=O)c2cc1-c1cc(NC(C)=O)cc(C(N)=O)c1` (stereo not drawn) [Compound 64], greater than 250 nM; that for `CCOC(=O)c1cncc(-c2cc3c(=O)cc(-c4ccc(OCCOCCOCCOCCOc5cccc6c5C(=O)N(C5CCC(=O)NC5=O)C6=O)cc4Cl)oc3cc2OCC)c1` (stereo not drawn) [Compound 41], 1000 nM.
On to `CCOc1cc2oc(-c3ccc(OCCOCCOCCOCCOc4cccc5c4C(=O)N(C4CCC(=O)NC4=O)C5=O)cc3Cl)cc(=O)c2cc1-c1cc(NC)cc(C(N)=O)c1` (stereo not drawn) [Compound 62], for which the DC50 is greater than 250 nM.
The result for `CCOc1cc2oc(-c3ccc(OCCOCCOCCOCCOc4cccc5c4C(=O)N(C4CCC(=O)NC4=O)C5=O)cc3Cl)cc(=O)c2cc1-c1cc(C(C)=O)cc(C(N)=O)c1` (stereo not drawn) [Compound 75] reads 24.6 nM; that for `CCOc1cc2oc(-c3ccc(NCCOCCOCCOCCOc4cccc5c4C(=O)N(C4CCC(=O)NC4=O)C5=O)cc3Cl)cc(=O)c2cc1COc1ccccc1C(N)=O` (stereo not drawn) [Compound 52], greater than 250 nM; that for `CCOc1cc2oc(-c3ccc(OCCOCCOCCOCCOc4cccc5c4C(=O)N(C4CCC(=O)NC4=O)C5=O)cc3Cl)cc(=O)c2cc1-c1cc(C)cc(C(N)=O)c1` (stereo not drawn) [Compound 42], 750 nM.
On to `CCOc1cc2oc(-c3ccc(OCCOCCOCCOCCOc4cccc5c4C(=O)N(C4CCC(=O)NC4=O)C5=O)cc3Cl)cc(=O)c2cc1-c1cc(C(N)=O)cc(-n2ccnc2)c1` (stereo not drawn) [Compound 60], for which the DC50 is greater than 250 nM.
The result for `CCOc1cc2oc(-c3ccc(OCCOCCOCCOCCOc4cccc5c4C(=O)N(C4CCC(=O)NC4=O)C5=O)cc3Cl)cc(=O)c2cc1-c1cc(C(N)=O)cc(-c2ccncc2)c1` (stereo not drawn) [Compound 58] reads 500 nM; that for `CCOc1cc2oc(-c3ccc(OCCOCCOCCOCCOc4cccc5c4C(=O)N(C4CCC(=O)NC4=O)C5=O)cc3Cl)cc(=O)c2cc1-c1cc(C(N)=O)cc(-c2ccccn2)c1` (stereo not drawn) [Compound 56], greater than 1000 nM; that for `CCOc1cc2oc(-c3ccc(OCCOCCOCCOCCOc4cccc5c4C(=O)N(C4CCC(=O)NC4=O)C5=O)cc3Cl)cc(=O)c2cc1-c1cc(N)cc(C(=O)OC)c1` (stereo not drawn) [Compound 40], 750 nM.
To `CCOc1cc2oc(-c3ccc(OCCOCCOCCOCCOc4cccc5c4C(=O)N(C4CCC(=O)NC4=O)C5=O)cc3Cl)cc(=O)c2cc1-c1cc(N)cc(C(=O)O)c1` (stereo not drawn) [Compound 30] belongs 2000 nM; to `CCOc1cc2oc(-c3ccc(OCCOCCOCCOCCOc4cccc5c4C(=O)N(C4CCC(=O)NC4=O)C5=O)cc3Cl)cc(=O)c2cc1-c1cc(C(N)=O)cc(S(C)(=O)=O)c1` (stereo not drawn) [Compound 79], 500 nM; to `CCOc1cc2oc(-c3ccc(OCCOCCOCCOCCOc4cccc5c4C(=O)N(C4CCC(=O)NC4=O)C5=O)cc3Cl)cc(=O)c2cc1-c1cc(C(N)=O)cc(S(N)(=O)=O)c1` (stereo not drawn) [Compound 80], greater than 500 nM.
To `CCOc1cc2oc(-c3ccc(OCCOCCOCCOCCOc4cccc5c4C(=O)N(C4CCC(=O)NC4=O)C5=O)cc3Cl)cc(=O)c2cc1-c1cc(C(N)=O)cc(C2CCCCC2)c1` (stereo not drawn) [Compound 54] belongs greater than 250 nM.
As for `CCOc1cc2oc(-c3ccc(NCCOCCOCCOCCOc4cccc5c4C(=O)N(C4CCC(=O)NC4=O)C5=O)cc3Cl)cc(=O)c2cc1-c1cc(F)cc(C=O)c1` (stereo not drawn) [Compound 17], the DC50 is 250 nM.
For the molecule `CCOc1cc2oc(-c3ccc(NCCOCCOCCOCCOc4cccc5c4C(=O)N(C4CCC(=O)NC4=O)C5=O)cc3Cl)cc(=O)c2cc1-c1ccc2c(c1)CCC2` (stereo not drawn) [Compound 12], the DC50 is 920 nM.

Values taken from US20240293559A1, “SHP2 inhibitor, pharmaceutical composition containing the same and application thereof” (BEIJING TIDE PHARMACEUTICAL CO., LTD., priority 2021, published 2024).
